Target: T1, PD brain-derived a-syn aggregates (Homo sapiens, UniProt P37840)
T1 construct: from tissue; host or cells: human PD donor brain, sarkosyl-insoluble 100,000 x g pellet
Test: Micro-radiobinding competition assay against Example-1 [^3H-1] (Table 8)
Type: binding
Details: human PD brain-derived a-syn aggregates; for Competition at 100 nM (%): 100 nM non-radiolabelled example compound vs Example-1 [^3H-1] ligand; for Competition at 1 μM (%): 1 μM non-radiolabelled example compound vs Example-1 [^3H-1] ligand
Procedure: PD brain-derived a-syn aggregates were spotted onto microarray slides. The slides were incubated with the Example-1 [^3H-1] at 6 nM or 20 nM and the example compounds (non-radiolabelled) at 1 μM and 100 nM. In some cases, the non-radiolabelled example compounds were further assessed for a range of different concentrations, varying from 0.05 nM to 2 μM. After incubation, slides were washed and scanned by a real-time autoradiography system (BeaQuant, ai4R). Quantification of the signal was performed by using the Beamage image analysis software (ai4R). […] All measurements were performed with at least two technical replicates. For compounds tested in more than one experiment, the mean of the replicates or K; values in independent experiments is reported.
Results: Example compounds were assessed for their potency to compete with the binding of Example-1 [^3H-1] ligand to PD patient brain-derived a-syn aggregates. Results of the micro-radiobinding competition assay for the example compounds tested are shown in Table 8 as: % competition at 1 μM and 100 nM.

Row | SMILES | Competition at 100 nM (%) | Competition at 1 μM (%)
1 | COc1cccc(N2Cc3nn(-c4ccc(N5CC[C@H](F)C5)nc4)cc3C2=O)n1 [Example 78] | 60 | –
2 | N#Cc1ccc(N2Cc3nn(-c4ccc(N5CC[C@@H](F)C5)nc4)cc3C2=O)cc1 [Example 56] | 93 | –
3 | N#Cc1cc(N2Cc3nn(-c4ccc(N5CC[C@H](F)C5)nc4)cc3C2=O)ccc1N [Example 22] | – | 72
4 | COc1ccnc(N2Cc3nn(-c4ccc(N5CC[C@H](F)C5)nc4)cc3C2=O)c1 [Example 77] | 95 | 94
5 | N#Cc1ccc(N2Cc3nn(-c4ccc(N5CC[C@H](F)C5)nc4)cc3C2=O)cn1 [Example 29] | 91 | –
6 | O=C1c2cn(-c3ccc(N4CC[C@@H](F)C4)nc3)nc2CN1c1ccccc1F [Example 69] | 16 | 48
7 | N#Cc1ccc(N2Cc3nn(-c4ccc(N5CC[C@@H](F)C5)nc4)cc3C2=O)cc1N [Example 24] | – | 97
8 | COc1cccc(N2Cc3nn(-c4ccc(N5CC[C@@H](F)C5)nc4)cc3C2=O)n1 [Example 74] | 22 | 39
9 | Cc1c2c(nn1-c1ccc(N3CC[C@H](F)C3)nc1)CN(c1cccnc1)C2=O [Example 53] | 27 | 54
10 | Cc1c2c(nn1-c1ccc(N3CC[C@H](F)C3)nc1)CN(c1ccccn1)C2=O [Example 73] | 33 | 66
11 | Cc1cccc(N2Cc3nn(-c4ccc(N5CC[C@@H](F)C5)nc4)cc3C2=O)c1 [Example 61] | 53 | 80

Next, values leading:

Row | Competition at 100 nM (%) | Competition at 1 μM (%) | SMILES
12 | 25 | 74 | O=C1c2cn(-c3ccc(N4CCCC4)nc3)nc2CN1c1cnn(CCF)c1 [Example 129]
13 | 18 | 70 | Cc1c2c(nn1-c1ccc(N3CC[C@@H](F)C3)nc1)CN(c1ccncc1)C2=O [Example 94]
14 | 18 | 51 | O=C1c2cn(-c3ccc(NC4CC(F)C4)nc3)nc2CN1c1ccncc1 (centres unmarked) [Example 90]
15 | 77 | 103 | O=C1c2cn(-c3ccc(N4CC[C@H](F)C4)nc3)nc2CN1c1cccc(O)c1 [Example 178]
16 | 51 | 73 | CC(C)Oc1ccc(-n2cc3c(n2)CN(c2cccc(F)n2)C3=O)cn1 [Example 160]
17 | 72 | 98 | O=C1c2cn(-c3ccc(N4CC[C@@H](F)C4)nc3)nc2CN1c1cnsc1 [Example 131]
18 | 49 | 68 | Cc1c2c(nn1-c1ccc(N3CCCC3)nc1)CN(c1cccc(F)n1)C2=O [Example 144]
19 | 59 | – | Cn1cnc(N2Cc3nn(-c4ccc(N5CC[C@@H](F)C5)nc4)cc3C2=O)c1 [Example 133]
20 | 32 | 53 | Cc1c2c(nn1-c1ccc(N3CCCC3)nc1)CN(c1cncc(F)n1)C2=O [Example 146]
21 | 59 | 68 | Cc1cc(N2Cc3nn(-c4ccc(N5CC[C@@H](F)C5)nc4)cc3C2=O)ccn1 [Example 102]
22 | 34 | 61 | Cc1cnccc1N1Cc2nn(-c3ccc(N4CC[C@@H](F)C4)nc3)cc2C1=O [Example 122]
23 | 46 | 64 | O=C1c2cn(-c3ccc(N4CC[C@@H](F)C4)nc3)nc2CN1c1ccncc1O [Example 174]
24 | 13 | 54 | O=C1c2cn(-c3ccc(N4CC[C@H](F)C4)nc3)nc2CN1c1ccccc1O [Example 176]
25 | 32 | 58 | Cc1cnccc1N1Cc2nn(-c3ccc(N4CC[C@H](F)C4)nc3)cc2C1=O [Example 123]
